Test system: MV-4-11 cells
Assay: Gene expression microarray analysis (Affymetrix PrimeView) and GSEA
Assay type: cell-based, human
Parameters: RFU PODN (11730768_x_at) / Fold change /veh PODN (11730768_x_at) / RFU LINC00158 (11744669_a_at) / Fold change /veh LINC00158 (11744669_a_at) / RFU DUSP10 (11751237_a_at) / Fold change /veh DUSP10 (11751237_a_at) / RFU ID3 (11757404_x_at) / Fold change /veh ID3 (11757404_x_at) / RFU PLEKHG5 (11737974_s_at) / Fold change /veh PLEKHG5 (11737974_s_at) / RFU LRRC4B (11730491_at) / Fold change /veh LRRC4B (11730491_at) / RFU GIMAP4 (11747438_a_at) / Fold change /veh GIMAP4 (11747438_a_at) / RFU KRT8 (11758183_x_at) / Fold change /veh KRT8 (11758183_x_at) / RFU CNN1 (11734310_a_at) / Fold change /veh CNN1 (11734310_a_at) / RFU VPS37D (11726825_at) / Fold change /veh VPS37D (11726825_at) / RFU C10orf10 (11716522_x_at) / Fold change /veh C10orf10 (11716522_x_at) / RFU KIR2DL2 /// KIR2DL4 /// KIR2DL5A /// KIR2DL5B /// KIR2DS1 /// KIR2DS2 /// KIR2DS3 /// KIR2DS4 /// KIR3DL3 /// KIR3DL3 /// KIR3DS1 (11738374_at) / Fold change /veh KIR2DL2 /// KIR2DL4 /// KIR2DL5A /// KIR2DL5B /// KIR2DS1 /// KIR2DS2 /// KIR2DS3 /// KIR2DS4 /// KIR3DL3 /// KIR3DL3 /// KIR3DS1 (11738374_at) / RFU C1QL1 (11718748_at) / Fold change /veh C1QL1 (11718748_at) / RFU TMPRSS4 (11747572_a_at) / Fold change /veh TMPRSS4 (11747572_a_at) / RFU HAMP (11756126_x_at) / Fold change /veh HAMP (11756126_x_at) / RFU RNFT2 (11725882_a_at) / Fold change /veh RNFT2 (11725882_a_at) / RFU NR4A2 (11747474_a_at) / Fold change /veh NR4A2 (11747474_a_at) / RFU ABCC12 (11746883_a_at) / Fold change /veh ABCC12 (11746883_a_at) / RFU TMEM136 (11760407_x_at) / Fold change /veh TMEM136 (11760407_x_at) / RFU CLDN22 /// WWC2 (11732394_at) / Fold change /veh CLDN22 /// WWC2 (11732394_at) / RFU HLA-DPB1 (11760878_x_at) / Fold change /veh HLA-DPB1 (11760878_x_at) / RFU SPINT1 (11716480_a_at) / Fold change /veh SPINT1 (11716480_a_at) / RFU GAP43 (11754022_s_at) / Fold change /veh GAP43 (11754022_s_at) / RFU A4GNT (11735810_at) / Fold change /veh A4GNT (11735810_at) / RFU PRB3 (11715151_x_at) / Fold change /veh PRB3 (11715151_x_at) / RFU TUBB4B (11761932_at) / Fold change /veh TUBB4B (11761932_at) / RFU CAPN14 (11732068_a_at) / Fold change /veh CAPN14 (11732068_a_at) / RFU TMCC2 (11721928_a_at) / Fold change /veh TMCC2 (11721928_a_at) / RFU IRGQ (11745062_a_at) / Fold change /veh IRGQ (11745062_a_at) / RFU FAM174B (11720279_a_at) / Fold change /veh FAM174B (11720279_a_at) / RFU TMPRSS4 (11748680_a_at) / Fold change /veh TMPRSS4 (11748680_a_at) / RFU FAM212B (11763350_a_at) / Fold change /veh FAM212B (11763350_a_at) / RFU PLEKHG5 (11743358_a_at) / Fold change /veh PLEKHG5 (11743358_a_at) / RFU ZSCAN30 (11745921_a_at) / Fold change /veh ZSCAN30 (11745921_a_at) / RFU CMKLR1 (11741424_a_at) / Fold change /veh CMKLR1 (11741424_a_at) / RFU LOC101060620 /// MAPK8IP1 (11723275_at) / Fold change /veh LOC101060620 /// MAPK8IP1 (11723275_at) / RFU SPTSSB (11747773_x_at) / Fold change /veh SPTSSB (11747773_x_at) / RFU PRSS12 (11739890_at) / Fold change /veh PRSS12 (11739890_at) / RFU BIN1 (11741810_x_at) / Fold change /veh BIN1 (11741810_x_at) / RFU WNT11 (11732464_a_at) / Fold change /veh WNT11 (11732464_a_at) / RFU C10orf10 (11716521_a_at) / Fold change /veh C10orf10 (11716521_a_at) / RFU C5orf56 (11738089_at) / Fold change /veh C5orf56 (11738089_at) / RFU CYB561 (11721691_x_at) / Fold change /veh CYB561 (11721691_x_at) / RFU ANKRD19P (11752326_a_at) / Fold change /veh ANKRD19P (11752326_a_at) / RFU OR2T12 /// OR2T33 /// OR2T8 (11738714_s_at) / Fold change /veh OR2T12 /// OR2T33 /// OR2T8 (11738714_s_at) / RFU VCAN (11748164_a_at) / Fold change /veh VCAN (11748164_a_at) / RFU JSRP1 (11732532_at) / Fold change /veh JSRP1 (11732532_at) / RFU KRTAP10-11 (11738290_x_at) / Fold change /veh KRTAP10-11 (11738290_x_at) / RFU MYO3A (11730013_a_at) / Fold change /veh MYO3A (11730013_a_at) / RFU EBF3 (11725865_a_at) / Fold change /veh EBF3 (11725865_a_at) / RFU CAMK2N1 (11719241_x_at) / Fold change /veh CAMK2N1 (11719241_x_at) / RFU C5orf56 (11738088_a_at) / Fold change /veh C5orf56 (11738088_a_at) / RFU OLFML3 (11715873_a_at) / Fold change /veh OLFML3 (11715873_a_at) / RFU LOC100653217 /// NTM (11731650_a_at) / Fold change /veh LOC100653217 /// NTM (11731650_a_at) / RFU MAPK11 (11762145_a_at) / Fold change /veh MAPK11 (11762145_a_at) / RFU FIZ1 (11724087_x_at) / Fold change /veh FIZ1 (11724087_x_at) / RFU OASL (11726364_x_at) / Fold change /veh OASL (11726364_x_at) / RFU SOX15 (11748057_x_at) / Fold change /veh SOX15 (11748057_x_at) / RFU CD79A (11719716_a_at) / Fold change /veh CD79A (11719716_a_at) / RFU HIST1H1D (11736915_at) / Fold change /veh HIST1H1D (11736915_at) / RFU CASKIN2 (11723855_a_at) / Fold change /veh CASKIN2 (11723855_a_at) / RFU LOC730098 (11760151_x_at) / Fold change /veh LOC730098 (11760151_x_at) / RFU OR4N2 (11742367_at) / Fold change /veh OR4N2 (11742367_at) / RFU PRRT2 (11749266_a_at) / Fold change /veh PRRT2 (11749266_a_at) / RFU SNX32 (11753110_a_at) / Fold change /veh SNX32 (11753110_a_at) / RFU CDHR5 (11726645_a_at) / Fold change /veh CDHR5 (11726645_a_at) / RFU RCAN1 (11760418_a_at) / Fold change /veh RCAN1 (11760418_a_at) / RFU FAM167A (11723789_a_at) / Fold change /veh FAM167A (11723789_a_at) / RFU FAM26E (11764081_at) / Fold change /veh FAM26E (11764081_at) / RFU ISYNA1 (11749810_s_at) / Fold change /veh ISYNA1 (11749810_s_at) / RFU ACY1 (11761880_at) / Fold change /veh ACY1 (11761880_at) / RFU 11764098_at / Fold change /veh 11764098_at / RFU SAMD14 (11745864_x_at) / Fold change /veh SAMD14 (11745864_x_at) / RFU NPB (11741838_a_at) / Fold change /veh NPB (11741838_a_at) / RFU TMPRSS6 (11731388_a_at) / Fold change /veh TMPRSS6 (11731388_a_at) / RFU KRTAP10-2 (11738614_at) / Fold change /veh KRTAP10-2 (11738614_at) / RFU ARHGAP8 /// PRR5-ARHGAP8 (11727945_x_at) / Fold change /veh ARHGAP8 /// PRR5-ARHGAP8 (11727945_x_at) / RFU KRTAP5-7 /// NADSYN1 (11734609_at) / Fold change /veh KRTAP5-7 /// NADSYN1 (11734609_at) / RFU RASL12 (11751679_a_at) / Fold change /veh RASL12 (11751679_a_at) / RFU CDKN2B (11736163_a_at) / Fold change /veh CDKN2B (11736163_a_at) / RFU PRF1 (11729649_at) / Fold change /veh PRF1 (11729649_at) / RFU, ZNF638 /// ZNF638-IT1 / Fold change vs veh, ZNF638 /// ZNF638-IT1 / RFU, PANK3 / Fold change vs veh, PANK3 / RFU, SH3YL1 / Fold change vs veh, SH3YL1 / RFU, ZEB2 / Fold change vs veh, ZEB2 / RFU, NRIP1 / Fold change vs veh, NRIP1 / RFU, PTTG1IP / Fold change vs veh, PTTG1IP / RFU, CAPN2 / Fold change vs veh, CAPN2 / RFU, MED14 / Fold change vs veh, MED14 / RFU, SNORA58 / Fold change vs veh, SNORA58 / RFU, C1orf63 / Fold change vs veh, C1orf63 / RFU, LRRFIP1 / Fold change vs veh, LRRFIP1 / RFU, NDUFAF7 / Fold change vs veh, NDUFAF7 / RFU, SLC12A2 / Fold change vs veh, SLC12A2 / RFU, IBTK / Fold change vs veh, IBTK / RFU, ESF1 / Fold change vs veh, ESF1 / Fold change vs veh, TMEM50B / RFU, TAOK1 / Fold change vs veh, TAOK1 / RFU, ACBD3 / Fold change vs veh, ACBD3 / RFU, TMA16 / Fold change vs veh, TMA16 / RFU, RWDD3 / Fold change vs veh, RWDD3 / RFU, BCAT1 / Fold change vs veh, BCAT1 / RFU, EDEM3 / Fold change vs veh, EDEM3 / RFU, TMEM33 / Fold change vs veh, TMEM33 / RFU, WDR75 / Fold change vs veh, WDR75 / RFU, AHCTF1 / Fold change vs veh, AHCTF1 / RFU, TFRC / Fold change vs veh, TFRC / RFU, ZDHHC17 / Fold change vs veh, ZDHHC17 / RFU, NOM1 / Fold change vs veh, NOM1 / RFU, ARL8B / Fold change vs veh, ARL8B / RFU, ZBTB11 / Fold change vs veh, ZBTB11 / RFU, TAMM41 / Fold change vs veh, TAMM41 / RFU, KIAA1704 /// LOC100996395 / Fold change vs veh, KIAA1704 /// LOC100996395 / RFU, ING1 / Fold change vs veh, ING1 / RFU, TRMT61B / Fold change vs veh, TRMT61B / RFU, FUBP3 / Fold change vs veh, FUBP3 / RFU, TP53 / Fold change vs veh, TP53 / RFU, TNKS2 / Fold change vs veh, TNKS2 / RFU, ZFP14 / Fold change vs veh, ZFP14 / RFU, ACTR2 / Fold change vs veh, ACTR2 / RFU, PPP3R1 / Fold change vs veh, PPP3R1 / RFU, PIK3R1 / Fold change vs veh, PIK3R1 / RFU, HNRNPA1 / Fold change vs veh, HNRNPA1 / RFU, RNF170 / Fold change vs veh, RNF170 / RFU, ZNF28 / Fold change vs veh, ZNF28 / RFU, RNGTT / Fold change vs veh, RNGTT / RFU, OGT / Fold change vs veh, OGT / RFU, BRD1 / Fold change vs veh, BRD1 / RFU, MARS / Fold change vs veh, MARS / RFU, ZNF655 / Fold change vs veh, ZNF655 / RFU, FAHD1 / Fold change vs veh, FAHD1 / RFU, BDP1 / Fold change vs veh, BDP1 / RFU, LRRCC1 / Fold change vs veh, LRRCC1 / RFU, ARID1A / Fold change vs veh, ARID1A / RFU, ZNF146 / Fold change vs veh, ZNF146 / RFU, ZNF330 / Fold change vs veh, ZNF330 / RFU, GPN3 / Fold change vs veh, GPN3 / RFU, C9orf123 / Fold change vs veh, C9orf123 / RFU, N4BP2L2 / Fold change vs veh, N4BP2L2 / RFU, ARFIP1 / Fold change vs veh, ARFIP1 / RFU, FAM179B / Fold change vs veh, FAM179B / RFU, BCL10 / Fold change vs veh, BCL10 / RFU, UHRF1BP1L / Fold change vs veh, UHRF1BP1L / RFU, BET1 / Fold change vs veh, BET1 / RFU, CNOT2 / Fold change vs veh, CNOT2 / RFU, ZNF268 / Fold change vs veh, ZNF268 / Fold change vs veh, ZNF507 / RFU, DGCR2 / Fold change vs veh, DGCR2 / RFU, WDSUB1 / Fold change vs veh, WDSUB1 / Fold change vs veh, HSP90B1 /// MIR3652 / RFU, ADSS / Fold change vs veh, ADSS / RFU, GK / Fold change vs veh, GK / RFU, ZNF148 / Fold change vs veh, ZNF148 / RFU, TAF9 / Fold change vs veh, TAF9 / RFU, SLC1A5 / Fold change vs veh, SLC1A5 / RFU, SLMO2 / Fold change vs veh, SLMO2 / RFU, ABCC4 / Fold change vs veh, ABCC4 / RFU, LOC101060439 /// RAP1B / Fold change vs veh, LOC101060439 /// RAP1B / RFU, RFX7 / Fold change vs veh, RFX7 / RFU, GTPBP10 / Fold change vs veh, GTPBP10 / RFU, CNEP1R1 / Fold change vs veh, CNEP1R1 / RFU, BIVM-ERCC5 /// ERCC5 / Fold change vs veh, BIVM-ERCC5 /// ERCC5 / RFU, ILF3 / Fold change vs veh, ILF3 / RFU 11762660_at / Fold change /veh 11762660_at / RFU VCAN (11757783_s_at) / Fold change /veh VCAN (11757783_s_at) / RFU DDX43 (11728927_at) / Fold change /veh DDX43 (11728927_at) / RFU KRT8 (11758188_x_at) / Fold change /veh KRT8 (11758188_x_at) / RFU NKD1 (11759106_at) / Fold change /veh NKD1 (11759106_at) / RFU SRD5A1 (11742802_a_at) / Fold change /veh SRD5A1 (11742802_a_at) / RFU TPSAB1 /// TPSB2 (11721975_s_at) / Fold change /veh TPSAB1 /// TPSB2 (11721975_s_at) / RFU GSTM3 (11746129_a_at) / Fold change /veh GSTM3 (11746129_a_at) / RFU IL23R (11737362_x_at) / Fold change /veh IL23R (11737362_x_at) / RFU TMEM51 (11727254_a_at) / Fold change /veh TMEM51 (11727254_a_at) / RFU PIWIL2 (11732686_x_at) / Fold change /veh PIWIL2 (11732686_x_at) / RFU ORM1 (11744905_x_at) / Fold change /veh ORM1 (11744905_x_at) / RFU CCDC152 (11743942_at) / Fold change /veh CCDC152 (11743942_at) / RFU ECM1 (11717891_a_at) / Fold change /veh ECM1 (11717891_a_at) / RFU IL23R (11748794_a_at) / Fold change /veh IL23R (11748794_a_at) / RFU TNFAIP8L3 (11732012_x_at) / Fold change /veh TNFAIP8L3 (11732012_x_at) / RFU MBOAT4 (11741988_at) / Fold change /veh MBOAT4 (11741988_at) / RFU 11764193_at / Fold change /veh 11764193_at / RFU TMEM53 (11763286_at) / Fold change /veh TMEM53 (11763286_at) / RFU MAGEB2 (11727129_at) / Fold change /veh MAGEB2 (11727129_at) / RFU TMEM200A (11744735_a_at) / Fold change /veh TMEM200A (11744735_a_at) / RFU CCDC152 (11751479_a_at) / Fold change /veh CCDC152 (11751479_a_at) / RFU FAM211A (11726209_a_at) / Fold change /veh FAM211A (11726209_a_at) / RFU RGS16 (11746705_a_at) / Fold change /veh RGS16 (11746705_a_at) / RFU VCAN (11755009_s_at) / Fold change /veh VCAN (11755009_s_at) / RFU RHOB (11743442_s_at) / Fold change /veh RHOB (11743442_s_at) / RFU RGS16 (11720943_a_at) / Fold change /veh RGS16 (11720943_a_at) / RFU RGS16 (11720944_at) / Fold change /veh RGS16 (11720944_at) / RFU, VPS4B / Fold change vs veh, VPS4B / RFU, CREB1 / Fold change vs veh, CREB1 / RFU, DNAJC13 / Fold change vs veh, DNAJC13 / RFU, GNAQ / Fold change vs veh, GNAQ / RFU, CDK5R1 / Fold change vs veh, CDK5R1 / RFU, ZRANB3 / Fold change vs veh, ZRANB3 / RFU, CUL4A / Fold change vs veh, CUL4A / RFU, CCNY / Fold change vs veh, CCNY / RFU, UFL1 / Fold change vs veh, UFL1 / RFU, COG3 / Fold change vs veh, COG3 / RFU, DIAPH2 / Fold change vs veh, DIAPH2 / RFU, SKA2 / Fold change vs veh, SKA2 / RFU, AFF3 / Fold change vs veh, AFF3 / RFU, LMF1 / Fold change vs veh, LMF1 / RFU, IPO11 / Fold change vs veh, IPO11 / RFU, DFFB / Fold change vs veh, DFFB / RFU, FOXP1 / Fold change vs veh, FOXP1 / RFU, CARD8 / Fold change vs veh, CARD8 / RFU, STRN3 / Fold change vs veh, STRN3 / RFU, ADK / Fold change vs veh, ADK / RFU, RASSF2 / Fold change vs veh, RASSF2 / RFU, WIPF1 / Fold change vs veh, WIPF1 / RFU, LARP1B / Fold change vs veh, LARP1B / RFU, RASA1 / Fold change vs veh, RASA1 / RFU, RB1 / Fold change vs veh, RB1 / RFU, PPFIA1 / Fold change vs veh, PPFIA1 / RFU, MAT2A / Fold change vs veh, MAT2A / RFU, CCT5 / Fold change vs veh, CCT5 / RFU, WDR92 / Fold change vs veh, WDR92 / RFU, CUX1 / Fold change vs veh, CUX1 / RFU, TTC7A / Fold change vs veh, TTC7A / RFU, TMEM135 / Fold change vs veh, TMEM135 / RFU, DEPTOR / Fold change vs veh, DEPTOR / RFU, CPM / Fold change vs veh, CPM / RFU, DNAJB6 / Fold change vs veh, DNAJB6 / RFU, CACNA2D3 / Fold change vs veh, CACNA2D3 / RFU, DTX4 / Fold change vs veh, DTX4 / RFU, TFCP2 / Fold change vs veh, TFCP2 / RFU, GMCL1 /// GMCL1P1 / Fold change vs veh, GMCL1 /// GMCL1P1 / RFU, AEBP2 / Fold change vs veh, AEBP2 / RFU, SNHG1 /// SNORD22 /// SNORD25 /// SNORD26 /// SNORD27 /// SNORD28 /// SNORD29 /// SNORD31 / Fold change vs veh, SNHG1 /// SNORD22 /// SNORD25 /// SNORD26 /// SNORD27 /// SNORD28 /// SNORD29 /// SNORD31 / Fold change (Aza/veh), C12orf56 (ProbeSet 11735607_a_at) / Fold change (ACY-1035/veh), C12orf56 (ProbeSet 11735607_a_at) / Fold change (Aza/veh), FGFR1OP (ProbeSet 11751329_s_at) / Fold change (ACY-1035/veh), FGFR1OP (ProbeSet 11751329_s_at) / Fold change (Aza/veh), VPS36 (ProbeSet 11739960_a_at) / Fold change (ACY-1035/veh), VPS36 (ProbeSet 11739960_a_at) / RFU SYPL1 (11715823_x_at) / Fold change /veh SYPL1 (11715823_x_at) / RFU IGFBP7 (11715501_s_at) / Fold change /veh IGFBP7 (11715501_s_at) / RFU REEP3 (11722064_at) / Fold change /veh REEP3 (11722064_at) / RFU IGLL1 (11728026_x_at) / Fold change /veh IGLL1 (11728026_x_at): dose or concentration left out as unconfirmed
Conditions: ProbeSet 11725901_x_at; LIST B

For `Nc1ncn([C@@H]2O[C@H](CO)[C@@H](O)[C@H]2O)c(=O)n1` [azacitidine], the “Fold change vs veh, RWDD3” value was 0.96.
